Literature values as cited in US20050090554A1, “Treatment of gastroparesis and nonulcer dyspepsia with GABAB agonists” (priority 2003, published 2005).

Tests used:
[1] = compared with the S-isomer
[2] = administered isomer
[3] = with the exception of the upper small intestine (carrier-mediated transport)

In the case of NC[C@H](CC(=O)O)c1ccc(Cl)cc1 [(R)-baclofen], the half-life [1] is given as “longer”, the metabolic clearance [1] is given as “lower” and the systemic exposure [1] is given as “higher”. The “arterial blood pressure and heart rate” value [2] was “opposite effects”.
For NCC(CC(=O)O)c1ccc(Cl)cc1 (racemic) [baclofen, 4-amino-3-(p-chlorophenyl)-butyric acid], the “permeability in the GI tract” value [3] is given as “poor permeability”.
For NC[C@@H](CC(=O)O)c1ccc(Cl)cc1 [(S)-baclofen], the “arterial blood pressure and heart rate” value [2] is listed as “decrease”.
